Laboratory results: patent US20050074879A1, “Antisense oligonucleotide modulation of STAT3 expression” (priority 2000, published 2005)
Oligonucleotides are written 5' to 3', each unit as a sugar letter and its base; * is a phosphorothioate linkage, no mark a phosphodiester; rarer units and linkages stand in square brackets, end groups in braces. Plain capitals give the bases only. e = 2'-O-(2-methoxyethyl) (MOE); [5mC] = 5-methylcytosine; d = 2'-deoxy (DNA)

The substances below were run on Human STAT3 mRNA (assay: Inhibition of human STAT3 mRNA levels in A549 cells, 75 nM, real-time PCR (Table 13)). Details: 75 nM oligonucleotide with LIPOFECTIN, real-time PCR PPS 199, percent inhibition relative to untreated control cells, average of 2 experiments.
Format: cell-based
Description: Oligonucleotide activity is assayed by quantitation of STAT3 mRNA levels by real-time PCR (RT-PCR) using the ABI PRISMS 7700 Sequence Detection System (PE-Applied Biosystems, Foster City, Calif.) according to manufacturer's instructions. This is a closed-tube, non-gel-based, fluorescence detection system which allows high-throughput quantitation of polymerase chain reaction (PCR) products in real-time. As opposed to standard PCR, in which amplification products are quantitated after the PCR is completed, products in RT-PCR are quantitated as they accumulate. This is accomplished by including in the PCR reaction an oligonucleotide probe that anneals specifically between the forward and reverse PCR primers, and contains two fluorescent dyes. A reporter dye (e.g., JOE or FAM, PE-Applied Biosystems, Foster City, Calif.) is attached to the 5′ end of the probe and a quencher dye (e.g., TAMRA, PE-Applied Biosystems, Foster City, Calif.) is attached to the 3′ end of the probe. When the probe and dyes are intact, reporter dye emission is quenched by the proximity of the 3′ quencher dye. During amplification, annealing of the probe to the target sequence creates a substrate that can be cleaved by the 5′-exonuclease activity of Taq polymerase. […] With each cycle, additional reporter dye molecules are cleaved from their respective probes, and the fluorescence intensity is monitored at regular (six-second) intervals by laser optics built into the ABI PRISM™ 7700 Sequence Detection System. In each assay, a series of parallel reactions containing serial dilutions of mRNA from untreated control samples generates a standard curve that is used to quantitate the percent inhibition after antisense oligonucleotide treatment of test samples.
RT-PCR reagents are obtained from PE-Applied Biosystems, Foster City, Calif. RT-PCR reactions are carried out by adding 25 l PCR cocktail (1× TAQMAN7 buffer A, 5.5 mM MgCl2, 300 µM each of DATP, dCTP and dGTP, 600 µM of dUTP, 100 nM each of forward primer, reverse primer, and probe, 20 U RNAse inhibitor, 1.25 units AMPLITAQ GOLD7, and 12.5 U MuLV reverse transcriptase) to 96 well plates containing 25 l poly(A) mRNA solution. The RT reaction is carried out by incubation for 30 minutes at 48° C. following a 10 minute incubation at 95° C. to activate the AMPLITAQ GOLD7, 40 cycles of a two-step PCR protocol are carried out: 95° C. for 15 seconds (denaturation) followed by 60° C. for 1.5 minutes (annealing/extension).
The compounds were analyzed for their effect on STAT3 mRNA levels in A549 cells. The human lung carcinoma cell line A549 was obtained from the American Type Culture Collection (ATCC) (Manassas, Va.). A549 cells were routinely cultured in DMEM basal media (Invitrogen Corporation, Carlsbad, Calif.) supplemented with 10% fetal calf serum (Invitrogen Corporation, Carlsbad, Calif.), 100 units/mL penicillin, and 100 ug/mL streptomycin (Invitrogen Corporation, Carlsbad, Calif.). Cells were routinely passaged by trypsinization and dilution when they reached 90% confluence.
When cells reached 65-75% confluency, they were treated with oligonucleotide. For cells grown in 96-well plates, wells were washed once with […] OPTI-MEM-1 reduced-serum medium (Invitrogen Corporation, Carlsbad, Calif.) and then treated with 130 µL of OPTI-MEM-1 containing […] LIPOFECTIN (Invitrogen Corporation, Carlsbad, Calif.) and 75 nM of the compounds in Table 13. Cells were treated and data were obtained in duplicate. Untreated cells served as controls. After 4-7 hours of treatment at 37° C., the medium was replaced with fresh medium. Cells were harvested 16-24 hours after oligonucleotide treatment. STAT3 mRNA levels in A549 cells were quantitated by real-time PCR as described by other methods herein.
Probes and primers to human STAT3 were designed to hybridize to a human STAT3 sequence, using published sequence information (incorporated herein as SEQ ID NO: 1). For STAT 3 the PCR primers were: • forward primer: […]

Going from “337324 (antisense eG*e[5mC]*eA*eT*eT*dT*dG*dG*d[5mC]*dA*dT*d[5mC]*dT*dG*dA*e[5mC]*eA*eG*eA*eT) [compound 337324]” to “337262 (antisense eA*eA*e[5mC]*eT*eG*d[5mC]*d[5mC]*dG*d[5mC]*dA*dG*d[5mC]*dT*d[5mC]*d[5mC]*eA*eT*eT*eG*eG) [compound 337262]”, the “% Inhib (inhibition of human STAT 3 mRNA levels)” value (“% Inhib” below) falls from 79% to 74%.

First: 337366 (antisense eA*eG*eA*eT*eA*dG*d[5mC]*dA*dG*dA*dA*dG*dT*dA*dG*eG*eA*eG*eA*eT) [compound 337366]
Second: 337269 (antisense eT*eT*e[5mC]*eT*e[5mC]*dA*dA*dG*dA*dT*dA*d[5mC]*d[5mC]*dT*dG*e[5mC]*eT*e[5mC]*eT*eG) [compound 337269]
The “% Inhib” value of the first is lower: 66% for the first, 74% for the second.

First: 337369 (antisense e[5mC]*eA*eG*eA*eT*d[5mC]*dA*d[5mC]*d[5mC]*d[5mC]*dA*d[5mC]*dA*dT*dT*e[5mC]*eA*e[5mC]*eT*e[5mC]) [compound 337369]
Second: 337292 (antisense eT*eT*e[5mC]*eT*eG*d[5mC]*dA*d[5mC]*dG*dT*dA*d[5mC]*dT*d[5mC]*d[5mC]*eA*eT*e[5mC]*eG*e[5mC]) [compound 337292]
The “% Inhib” value of the first is higher: 88% for the first, 81% for the second.

Going from “337312 (antisense eA*eT*e[5mC]*eA*eG*dG*dT*dG*d[5mC]*dA*dG*d[5mC]*dT*d[5mC]*d[5mC]*eT*e[5mC]*eA*eG*eT) [compound 337312]” to “337316 (antisense eT*e[5mC]*eA*eA*eT*d[5mC]*dT*dT*dG*dA*dG*dG*d[5mC]*d[5mC]*dT*eT*eG*eG*eT*eG) [compound 337316]”, the “% Inhib” value falls from 78% to 59%.

Going from “337336 (antisense eT*e[5mC]*eT*eT*eT*dG*d[5mC]*dT*dG*d[5mC]*dT*dT*dT*d[5mC]*dA*e[5mC]*eT*eG*eA*eA) [compound 337336]” to “337257 (antisense eG*eG*e[5mC]*eG*eG*d[5mC]*dG*dA*dG*dG*d[5mC]*dT*d[5mC]*d[5mC]*d[5mC]*eT*e[5mC]*eA*eG*eG) [compound 337257]”, the “% Inhib” value rises from 79% to 80%.

Going from “337281 (antisense eG*eG*eG*eT*eT*dT*dT*dA*dT*dA*dG*dT*dT*dG*dA*eA*eA*eT*e[5mC]*eA) [compound 337281]” to “337383 (antisense eT*eA*eA*eA*eA*dA*dG*dA*dA*dA*d[5mC]*d[5mC]*dT*dA*dG*eG*eG*e[5mC]*eT*eT) [compound 337383]”, the “% Inhib” value rises from 16% to 81%.

Compared with “337254 (antisense e[5mC]*eT*eT*eG*eT*dT*d[5mC]*d[5mC]*d[5mC]*dT*d[5mC]*dG*dG*d[5mC]*dT*eG*e[5mC]*eG*eA*e[5mC]) [compound 337254]”, “337311 (antisense eT*e[5mC]*eT*e[5mC]*eT*dG*d[5mC]*dT*d[5mC]*d[5mC]*d[5mC]*dT*d[5mC]*dA*dG*eG*eG*eT*e[5mC]*eA) [compound 337311]” is higher in “% Inhib” value: 57% for the first, 61% for the second.

Going from “337354 (antisense eT*eG*e[5mC]*eA*eG*dG*dT*d[5mC]*dG*dT*dT*dG*dG*dT*dG*eT*e[5mC]*eA*e[5mC]*eA) [compound 337354]” to “337321 (antisense eA*e[5mC]*e[5mC]*eA*e[5mC]*dA*dA*d[5mC]*dT*dG*dG*d[5mC]*dA*dA*dG*eG*eA*eG*eT*eG) [compound 337321]”, the “% Inhib” value rises from 62% to 80%.

First: 337297 (antisense eA*e[5mC]*eG*eT*eT*dA*dT*d[5mC]*d[5mC]*dA*dG*dT*dT*dT*dT*e[5mC]*eT*eA*eG*e[5mC]) [compound 337297]
Second: 337272 (antisense eA*eT*e[5mC]*eT*eG*d[5mC]*dT*dG*d[5mC]*dT*dT*d[5mC]*dT*d[5mC]*d[5mC]*eG*eT*e[5mC]*eA*e[5mC]) [compound 337272]
The “% Inhib” value of the first is lower: 72% for the first, 74% for the second.

Going from “337248 (antisense eT*eA*eT*eT*eG*dA*dA*dA*dA*dT*dT*dA*dT*d[5mC]*dT*eA*eA*eT*eT*e[5mC]) [compound 337248]” to “337377 (antisense eG*e[5mC]*eT*eT*eA*d[5mC]*dA*dG*dA*dA*dA*d[5mC]*dA*dG*dG*e[5mC]*eA*eG*eA*eA) [compound 337377]”, the “% Inhib” value rises from 0% to 78%.

First: 337345 (antisense eG*eG*eT*eA*eG*d[5mC]*dA*dT*d[5mC]*d[5mC]*dA*dT*dG*dA*dT*e[5mC]*eT*eT*eA*eT) [compound 337345]
Second: 337264 (antisense e[5mC]*eG*e[5mC]*eA*eT*dA*dT*dG*d[5mC]*d[5mC]*d[5mC]*dA*dA*dT*d[5mC]*eT*eT*eG*eA*e[5mC]) [compound 337264]
The “% Inhib” value of the first is higher: 86% for the first, 81% for the second.

First: 337309 (antisense eA*eG*eA*eG*eG*d[5mC]*dT*dG*d[5mC]*d[5mC]*dG*dT*dT*dG*dT*eT*eG*eG*eA*eT) [compound 337309]
Second: 337346 (antisense eA*eA*eT*eG*eT*d[5mC]*dA*dG*dG*dA*dT*dA*dG*dA*dG*eA*eT*eA*eG*eA) [compound 337346]
The “% Inhib” value of the first is higher: 73% for the first, 55% for the second.

Going from “337251 (antisense eA*eT*eG*e[5mC]*e[5mC]*d[5mC]*dT*dT*dA*d[5mC]*dT*d[5mC]*dT*d[5mC]*d[5mC]*eG*e[5mC]*eA*eT*e[5mC]) [compound 337251]” to “337357 (antisense eG*eG*eT*e[5mC]*eA*dA*dT*dG*dG*dT*dA*dT*dT*dG*d[5mC]*eT*eG*e[5mC]*eA*eG) [compound 337357]”, the “% Inhib” value falls from 74% to 71%.

Going from “337338 (antisense eA*eT*eG*eA*e[5mC]*dA*dT*dG*dT*dT*dG*dT*dT*d[5mC]*dA*eG*e[5mC]*eT*eG*e[5mC]) [compound 337338]” to “337280 (antisense eT*eT*eA*eT*eA*dG*dT*dT*dG*dA*dA*dA*dT*d[5mC]*dA*eA*eA*eG*eT*e[5mC]) [compound 337280]”, the “% Inhib” value falls from 80% to 45%.

First: 337329 (antisense eT*eA*eG*e[5mC]*e[5mC]*d[5mC]*dA*dT*dG*dT*dG*dA*dT*d[5mC]*dT*eG*eA*e[5mC]*eA*e[5mC]) [compound 337329]
Second: 337373 (antisense e[5mC]*eA*e[5mC]*eA*eT*d[5mC]*d[5mC]*d[5mC]*d[5mC]*dT*dG*dA*dT*d[5mC]*dA*eT*eG*eG*eG*eT) [compound 337373]
The “% Inhib” value of the first is higher: 88% for the first, 70% for the second.

Compared with “337325 (antisense eT*eT*e[5mC]*eT*eT*dG*dG*dG*dA*dT*dT*dG*dT*dT*dG*eG*eT*e[5mC]*eA*eG) [compound 337325]”, “337353 (antisense eG*eT*e[5mC]*eG*eT*dT*dG*dG*dT*dG*dT*d[5mC]*dA*d[5mC]*dA*e[5mC]*eA*eG*eA*eT) [compound 337353]” is higher in “% Inhib” value: 75% for the first, 81% for the second.

Going from “337261 (antisense eT*eG*eT*e[5mC]*eA*dA*dG*d[5mC]*dT*dG*d[5mC]*dT*dG*dT*dA*eG*e[5mC]*eT*eG*eA) [compound 337261]” to “337322 (antisense eT*e[5mC]*eT*eG*eA*d[5mC]*dA*dG*dA*dT*dG*dT*dT*dG*dG*eA*eG*eA*eT*e[5mC]) [compound 337322]”, the “% Inhib” value falls from 79% to 69%.
